Patent publication US9199946B2, “Pyrimidinone carboxamide inhibitors of endothelial lipase” (BRISTOL-MYERS SQUIBB COMPANY, priority 2012, dated 2015)
pIC50: −log10 of the molar value. Like-named read-outs stand apart in the source and are kept apart here.

Molecular target: T1, Endothelial lipase (EL) (Homo sapiens, UniProt Q9Y5X9)
T1 construct: HT-1080 cells, which were transformed by RAGE technology (Athersys) to overexpress endogenous EL; endogenous in cells; conditioned medium used as the enzyme source
T1 sequence (Q9Y5X9 21-500): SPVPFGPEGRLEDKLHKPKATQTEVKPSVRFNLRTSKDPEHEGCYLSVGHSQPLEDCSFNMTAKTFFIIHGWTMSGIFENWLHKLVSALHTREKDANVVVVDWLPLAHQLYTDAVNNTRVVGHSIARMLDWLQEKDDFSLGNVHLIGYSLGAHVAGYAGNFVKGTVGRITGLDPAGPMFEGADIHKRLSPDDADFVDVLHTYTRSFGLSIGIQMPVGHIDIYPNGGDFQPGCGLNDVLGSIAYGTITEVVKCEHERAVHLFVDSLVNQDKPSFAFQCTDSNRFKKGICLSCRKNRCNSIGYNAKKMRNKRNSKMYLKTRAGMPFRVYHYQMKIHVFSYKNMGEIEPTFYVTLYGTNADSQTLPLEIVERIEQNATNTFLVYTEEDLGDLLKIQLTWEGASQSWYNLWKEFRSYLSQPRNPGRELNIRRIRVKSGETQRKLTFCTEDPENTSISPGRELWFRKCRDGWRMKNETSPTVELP
Experiment: Endothelial lipase (EL) enzymatic assay with fluorescent substrate A10070 in DMPG vesicles
Type: biochemical
How it was run: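 The enzyme source was conditioned medium from HT-1080 cells engineered to overexpress endogenous EL. It was preincubated with compound for 20 min at 37 °C in 50 mM HEPES pH 8.0, 50 mM NaCl, 1 mM CaCl2. Reactions started with DMPG vesicles carrying FRET substrate A10070 (mole fraction 0.05). The rate was taken from the linear slope of fluorescence (ex 488/em 530 nm) over 10 min.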

[1] = conditioned media from HT-1080 cells overexpressing endogenous EL, 20 min preincubation at 37° C., read-out: EL IC50
[2] = range observed in the EL assay, read-out: EL IC50 values

Nc1c(C(=O)NC2CCOc3ccccc32)[nH]c(=O)[nH]c1=O (centres unmarked) [Example 32, 5-amino-N-(chroman-4-yl)-2,6-dioxo-1,2,3,6-tetrahydropyrimidine-4-carboxamide]
pIC50 [1]: 5.43
pIC50 [2]: ≥ 5.00

O=C(N[C@@H]1CCCc2c(OCc3ccccc3)cccc21)c1[nH]c(=O)[nH]c(=O)c1O [Example 258, (R)-N-(5-(benzyloxy)-1,2,3,4-tetrahydronaphthalen-1-yl)-5-hydroxy-2,6-dioxo-1,2,3,6-tetrahydropyrimidine-4-carboxamide]
pIC50 [1]: 8.00
pIC50 [2]: ≥ 5.00

Nc1c(C(=O)N[C@@H]2CC(c3ccccc3)c3ccccc32)[nH]c(=O)[nH]c1=O (stereo in doubt) [Example 29, 5-amino-2,6-dioxo-N-((1R,3S)-3-phenyl-2,3-dihydro-1H-inden-1-yl)-1,2,3,6-tetrahydropyrimidine-4-carboxamide]
pIC50 [2]: ≥ 5.00

CC(C)(C)COc1ccc(C2CCC(NC(=O)c3[nH]c(=O)[nH]c(=O)c3O)C2)cc1 (centres unmarked) [Example 293, 5-hydroxy-N-(3-(4-(neopentyloxy)phenyl)cyclopentyl)-2,6-dioxo-1,2,3,6-tetrahydropyrimidine-4-carboxamide]
pIC50 [2]: ≥ 5.00

Nc1c(C(=O)N[C@@H]2CC[C@H](C(=O)Nc3ccccc3)C2)[nH]c(=O)[nH]c1=O [Example 130, 5-amino-2,6-dioxo-N-((1R,3S)-3-(phenylcarbamoyl)cyclopentyl)-1,2,3,6-tetrahydropyrimidine-4-carboxamide]
pIC50 [2]: ≥ 5.00

Nc1c(C(=O)N[C@@H]2CCc3ccc(-c4ccccc4)cc32)[nH]c(=O)[nH]c1=O [Example 138, (R)-5-amino-2,6-dioxo-N-(6-phenyl-2,3-dihydro-1H-inden-1-yl)-1,2,3,6-tetrahydropyrimidine-4-carboxamide]
pIC50 [1]: 5.76
pIC50 [2]: ≥ 5.00

Nc1c(C(=O)N[C@@H]2CCCc3c(-c4ccccc4)cccc32)[nH]c(=O)[nH]c1=O [Example 112, (R)-5-amino-2,6-dioxo-N-(5-phenyl-1,2,3,4-tetrahydronaphthalen-1-yl)-1,2,3,6-tetrahydropyrimidine-4-carboxamide]
pIC50 [2]: ≥ 5.00

O=C(N[C@H]1CCCc2c1cccc2C(F)(F)F)c1[nH]c(=O)[nH]c(=O)c1O [Example 266, (S)-5-hydroxy-2,6-dioxo-N-(5-(trifluoromethyl)-1,2,3,4-tetrahydronaphthalen-1-yl)-1,2,3,6-tetrahydropyrimidine-4-carboxamide]
pIC50 [2]: ≥ 5.00

O=C(N[C@H]1CCC[C@H](c2ccccc2)C1)c1[nH]c(=O)[nH]c(=O)c1O [Example 277, 5-hydroxy-2,6-dioxo-N-((1S,3S)-3-phenylcyclohcxyl)-1,2,3,6-tetrahydropyrimidine-4-carboxamide]
pIC50 [2]: ≥ 5.00

Nc1c(C(=O)N[C@H]2CC[C@@H](c3ccc(OCc4ccccc4)cc3)CC2)[nH]c(=O)[nH]c1=O [Example 114, 5-amino-N-(cis-4-(4-(benzyloxy)phenyl)cyclohexyl)-2,6-dioxo-1,2,3,6-tetrahydropyrimidine-4-carboxamide]
pIC50 [2]: ≥ 5.00

O=C(N[C@H]1CC[C@@H](c2ccccc2)CC1)c1[nH]c(=O)[nH]c(=O)c1NCCc1c[nH]cn1 [Example 213, 5-(2-(1H-imidazol-4-yl)ethylamino)-2,6-dioxo-N-(cis-4-phenylcyclohexyl)-1,2,3,6-tetrahydropyrimidine-4-carboxamide]
pIC50 [2]: ≥ 5.00

COc1ccc2c(c1)CCCC2NC(=O)c1[nH]c(=O)[nH]c(=O)c1N (single isomer, unassigned; enantiomer a) [Example 194, 5-amino-N-(6-methoxy-1,2,3,4-tetrahydronaphthalen-1-yl)-2,6-dioxo-1,2,3,6-tetrahydropyrimidine-4-carboxamide (Enantiomer A)]
pIC50 [2]: ≥ 5.00

COc1ccc2c(c1)OC(C)CC2NC(=O)c1[nH]c(=O)[nH]c(=O)c1N (centres unmarked) [Example 17, 5-amino-N-(7-methoxy-2-methylchroman-4-yl)-2,6-dioxo-1,2,3,6-tetrahydropyrimidine-4-carboxamide]
pIC50 [2]: ≥ 5.00

Nc1c(C(=O)NC2CCC(c3ccccc3)CC2)[nH]c(=O)[nH]c1=O (centres unmarked) [Example 2, 5-amino-2,6-dioxo-N-(4-phenylcyclohexyl)-1,2,3,6-tetrahydropyrimidine-4-carboxamide]
pIC50 [2]: ≥ 5.00

Cc1cc(Cl)nc(N2CCCC(NC(=O)c3[nH]c(=O)[nH]c(=O)c3N)C2)n1 (centres unmarked) [Example 185, 5-amino-N-(1-(4-chloro-6-methylpyrimidin-2-yl)piperidin-3-yl)-2,6-dioxo-1,2,3,6-tetrahydropyrimidine-4-carboxamide]
pIC50 [2]: ≥ 5.00

O=C(N[C@H]1CC[C@@H](c2ccccc2)CC1)c1[nH]c(=O)[nH]c(=O)c1NCc1ccccc1CO [Example 212, 5-(2-(hydroxymethyl)benzylamino)-2,6-dioxo-N-(cis-4-phenylcyclohexyl)-1,2,3,6-tetrahydropyrimidine-4-carboxamide]
pIC50 [2]: ≥ 5.00

Nc1c(C(=O)N[C@@H]2CCCc3c(OCC4CCCC4)cccc32)[nH]c(=O)[nH]c1=O [Example 113, (R)-5-amino-N-(5-(cyclopentylmethoxy)-1,2,3,4-tetrahydronaphthalen-1-yl)-2,6-dioxo-1,2,3,6-tetrahydropyrimidine-4-carboxamide]
pIC50 [2]: ≥ 5.00

COc1ccc2c(c1)[C@@H](NC(=O)c1[nH]c(=O)[nH]c(=O)c1O)CCC2 [Example 265, (S)-5-hydroxy-N-(7-methoxy-1,2,3,4-tetrahydronaphthalen-1-yl)-2,6-dioxo-1,2,3,6-tetrahydropyrimidine-4-carboxamide]
pIC50 [2]: ≥ 5.00

Nc1c(C(=O)N[C@@H]2CC[C@H](c3ccccc3)C2)[nH]c(=O)[nH]c1=O [Example 75, 5-amino-2,6-dioxo-N-((1R,3S)-3-phenylcyclopentyl)-1,2,3,6-tetrahydropyrimidine-4-carboxamide]
pIC50 [2]: ≥ 5.00

COc1ccc([C@@H]2CC[C@H](NC(=O)c3[nH]c(=O)[nH]c(=O)c3N)C2)cn1 [Example 79, 5-amino-N-((1S,3R)-3-(6-methoxypyridin-3-yl)cyclopentyl)-2,6-dioxo-1,2,3,6-tetrahydropyrimidine-4-carboxamide]
pIC50 [2]: ≥ 5.00

CCOC(=O)Cn1cc(-c2ccc([C@@H]3CC[C@H](NC(=O)c4[nH]c(=O)[nH]c(=O)c4N)C3)cc2)cn1 [Example 160, ethyl 2-(4-(4-((1R,3S)-3-(5-amino 2,6-dioxo-1,2,3,6-tetrahydropyrimidine-4-carboxamido)cyclopentyl)phenyl) 1H-pyrazol-1-yl)acetate]
pIC50 [2]: ≥ 5.00

COc1cc(C)c(OC)c2c1CC(NC(=O)c1[nH]c(=O)[nH]c(=O)c1N)CC2 (centres unmarked) [Example 109, 5-amino-N-(5,8-dimethoxy-6-methyl-1,2,3,4-tetrahydronaphthalen-2-yl)-2,6-dioxo-1,2,3,6-tetrahydropyrimidine-4-carboxamide]
pIC50 [2]: ≥ 5.00

NC(=O)c1ccccc1-c1ccc([C@@H]2CC[C@H](NC(=O)c3[nH]c(=O)[nH]c(=O)c3N)C2)cc1 [Example 180, 5-amino-N-((1S,3R)-3-(2′-carbamoyl-[1,1′-biphenyl]-4-yl)cyclopentyl)-2,6-dioxo-1,2,3,6-tetrahydropyrimidine-4-carboxamide]
pIC50 [1]: 6.85
pIC50 [2]: ≥ 5.00

Nc1c(C(=O)N[C@H]2CCCc3ccc(C(F)(F)F)cc32)[nH]c(=O)[nH]c1=O [Example 54, (S)-5-amino-2,6-dioxo-N-(7-(trifluoromethyl)-1,2,3,4-tetrahydronaphthalen-1-yl)-1,2,3,6-tetrahydropyrimidine-4-carboxamide]
pIC50 [1]: 5.15
pIC50 [2]: ≥ 5.00

Nc1c(C(=O)N[C@@H]2CCCc3cc(OCc4ccccc4)ccc32)[nH]c(=O)[nH]c1=O [Example 83, (R)-5-amino-N-(6-(benzyloxy)-1,2,3,4-tetrahydronaphthalen-1-yl)-2,6-dioxo-1,2,3,6-tetrahydropyrimidine-4-carboxamide]
pIC50 [2]: ≥ 5.00

Nc1c(C(=O)N[C@H]2C[C@@H](c3ccccc3)c3ccccc32)[nH]c(=O)[nH]c1=O (racemic) [Example 18, 5-amino-2,6-dioxo-N-(cis-3-phenyl-2,3-dihydro-1H-inden-1-yl)-1,2,3,6-tetrahydropyrimidine-4-carboxamide]
pIC50 [2]: ≥ 5.00

Nc1c(C(=O)NC2CCCN(c3nccc(C(F)(F)F)n3)C2)[nH]c(=O)[nH]c1=O (centres unmarked) [Example 184, 5-amino-2,6-dioxo-N-(1-(4-(trifluoromethyl)pyrimidin-2-yl)piperidin-3-yl)-1,2,3,6-tetrahydropyrimidine-4-carboxamide]
pIC50 [1]: 5.24
pIC50 [2]: ≥ 5.00

Nc1c(C(=O)N[C@H]2C[C@@H](c3ccccc3)c3ccccc32)[nH]c(=O)[nH]c1=O [Example 28, 5-amino-2,6-dioxo-N-((1S,3S)-3-phenyl-2,3-dihydro-1H-inden-1-yl)-1,2,3,6-tetrahydropyrimidine-4-carboxamide]
pIC50 [2]: ≥ 5.00

O=C(NC1CCC(c2cnn(Cc3ccccc3)c2)C1)c1[nH]c(=O)[nH]c(=O)c1O (centres unmarked) [Example 283, N-(3-(1-benzyl-1H-pyrazol-4-yl)cyclopentyl)-5-hydroxy-2,6-dioxo-1,2,3,6-tetrahydropyrimidine-4-carboxamide]
pIC50 [2]: ≥ 5.00
